Results as given in patent US10087449B2, “Pharmaceutical composition for treating chronic kidney disease” (SHIONOGI & CO., LTD., priority 2014, dated 2018).

Experiments:
NRK49F cells = test: TGFβ stimulation of NRK49F rat kidney fibroblasts, gene expression by quantitative PCR; assay type: cell-based
Procedure: Effect of stimulation by TGFβ, known as a promoting factor of fibrosis (Refer to Nephrol Dial Transplant., 1998, vol. 13, p. 573-579), on gene expression of NNMT, COL1A1, COL3A1 and COL4A1 was examined using NRK49F cells that are rat kidney fibroblasts. NRK49F cells were seeded into 12 well plates at 4×10^4 cells/well/mL and culture medium was changed to serum-free medium after 72 hr. Recombinant human TGFβ1 (R & D Co., Ltd., 5 ng/mL) was added after 24 hr and the cells were cultured for 6, 24 and 48 hr. After culture, total RNA was extracted from cells and the gene expression levels of NNMT, COL1A1, COL3A1 and COL4A1 were analyzed by quantitative PCR.
(§1) The siRNA of NNMT was introduced into NRK49F cells, rat kidney fibroblast cell line, the effect of which on enhanced gene expression of COL1A1, COL3A1 and COL4A1 by TGFβ stimulation was examined (FIG. 4). After NRK49F cells were seeded into 12 well plates at 4×10^4 cells/well/mL and culture for 72 hr, culture medium was changed to antibiotic-free medium and siRNA sequence (F; […] (SEQ ID NO: 2), R; […] (SEQ ID NO: 3)) for rat NNMT purchased was introduced into cells for 24 hr by lipofection method using RNAiMAX (Invitrogen Corp.) which is an introduction reagent of siRNA. Next, culture medium was changed to serum-free medium and after 24 hr, human recombinant TGFβ (R & D Co., Ltd., 5 ng/mL) was added and cultured for 48 hr. After culture, total RNA was extracted from cells and the gene expression levels of NNMT, COL1A1, COL3A1 and COL4A1 were analyzed by quantitative PCR.

[1] = test system: gene expression of COL1A1, COL3A1 and COL4A1 in NRK49F cells; test: Effect of NNMT siRNA on collagen gene expression enhanced by TGFβ in NRK49F cells (quantitative PCR); assay type: cell-based, rat; conditions: TGFβ 5 ng/mL, 48 hr
Procedure: as §1

rat NNMT = test: siRNA knock-down of NNMT gene expression in TGFβ-stimulated NRK49F cells (quantitative PCR); assay type: cell-based; conditions: TGFβ 5 ng/mL, 48 hr
Procedure: as §1

Substance | increase in gene expression of COL1A1 (NRK49F cells; TGFβ 5 ng/mL, 48 hr) | increase in gene expression of COL3A1 (NRK49F cells; TGFβ 5 ng/mL, 48 hr) | increase in gene expression of COL4A1 (NRK49F cells; TGFβ 5 ng/mL, 48 hr) | increase in gene expression of NNMT (NRK49F cells; TGFβ 5 ng/mL, 48 hr) | gene expression level of COL1A1 over time (NRK49F cells; TGFβ1 5 ng/mL, 6, 24 and 48 hr) | gene expression level of COL3A1 over time (NRK49F cells; TGFβ1 5 ng/mL, 6, 24 and 48 hr) | gene expression level of NNMT over time (NRK49F cells; TGFβ1 5 ng/mL, 6, 24 and 48 hr) | gene expression of COL4A1 over time (NRK49F cells; TGFβ1 5 ng/mL, 6, 24 and 48 hr) | decrease in gene expression of COL1A1 ([1]; siRNA 0.01 nM) | decrease in gene expression of COL3A1 ([1]; siRNA 0.01 nM) | decrease in gene expression of COL4A1 ([1]; siRNA 0.01 nM) | decrease in gene expression of COL1A1 ([1]; siRNA 0.1 nM) | decrease in gene expression of COL3A1 ([1]; siRNA 0.1 nM) | decrease in gene expression of COL4A1 ([1]; siRNA 0.1 nM) | decrease in gene expression of COL1A1 ([1]; siRNA 1 nM) | decrease in gene expression of COL3A1 ([1]; siRNA 1 nM) | decrease in gene expression of COL4A1 ([1]; siRNA 1 nM) | knock-down of gene expression of NNMT (rat NNMT; siRNA 0.01 nM) | knock-down of gene expression of NNMT (rat NNMT; siRNA 0.1 nM) | knock-down of gene expression of NNMT (rat NNMT; siRNA 1 nM)
TGFβ1: Recombinant human TGFβ1 (R & D Co., Ltd.), promoting factor of fibrosis used as stimulus | 7.1 fold | 6.5 fold | 3.1 fold | about 3.6 fold | time-dependent increases | time-dependent increases | time-dependent increases | reached the maximum level in 6 hr and left the plateau to 24 hr |  |  |  |  |  |  |  |  |  |  |  | 
siRNA of NNMT: siRNA for rat NNMT, purchased; F CCACAUCCAAUAAUGAAGGACUCUU (SEQ ID NO: 2), R AAGAGUCCUUCAUUAUUGGAUGUGG (SEQ ID NO: 3) (listed as RNA, chemistry not given here) |  |  |  |  |  |  |  |  | 20% | 20% | 33% | 36% | 31% | 15% | 78% | 62% | 57% | 23% | 45% | 60%
